Results from paper PMC7076352 (Pharmaceutics, 2020).
Like-named read-outs stand apart in the source and are kept apart here. Each block holds one molecule with its values, some of them ahead of it.

Assays:
[1] = target: T1, CYP2E1 (Rattus norvegicus, UniProt P05182)
Procedure: (§7) For the cocktail assay, the activity is expressed as the percentage of activity remaining comparing with that of a control sample containing no inhibitor. […] All the data were described as mean ± standard deviation (SD). Normality assumptions were tested by the Kolmogorov–Smirnov statistic setting p = 0.10 as the limit for rejection of the null hypothesis of normality. If the distribution of the data was normal with equal variances, a two-sided test was performed at the 5% level of significance. The Welch’s correction was then applied when the underlying variances were not equal. When the assumption of normality must be rejected, the Mann-Whitney test, a non-parametric equivalent of the independent-measures t-test, was used.

[2] = system: CYP2C19; assay: In vitro cocktail CYP450 activity assay in rat liver microsomes, CYP2C19 (omeprazole probe); settings: for IC50: microsomes
Procedure: (§1) (OHBUP-[D6]) and 5 nM 4′-hydroxydiclofenac-[^13C6] (OHDIC-[^13C6]) as internal standards (ISs). […]
(§2) standard addition experiments. Each group included four concentration levels. For the PK […]
(§3) The probe compounds, viz. […]
(§4) chosen after incubating all the recruited substrates. In order to assure the linear relationship […]
(§5) The incubation system was also optimized in terms of substrate concentrations. The substrates concentrations of […]

[3] = target: T2, CYP1A2 (Rattus norvegicus, UniProt P04799); assay: In vitro cocktail CYP450 activity assay in rat liver microsomes, CYP1A2 (phenacetin probe)
T2 sequence (P04799 1-513): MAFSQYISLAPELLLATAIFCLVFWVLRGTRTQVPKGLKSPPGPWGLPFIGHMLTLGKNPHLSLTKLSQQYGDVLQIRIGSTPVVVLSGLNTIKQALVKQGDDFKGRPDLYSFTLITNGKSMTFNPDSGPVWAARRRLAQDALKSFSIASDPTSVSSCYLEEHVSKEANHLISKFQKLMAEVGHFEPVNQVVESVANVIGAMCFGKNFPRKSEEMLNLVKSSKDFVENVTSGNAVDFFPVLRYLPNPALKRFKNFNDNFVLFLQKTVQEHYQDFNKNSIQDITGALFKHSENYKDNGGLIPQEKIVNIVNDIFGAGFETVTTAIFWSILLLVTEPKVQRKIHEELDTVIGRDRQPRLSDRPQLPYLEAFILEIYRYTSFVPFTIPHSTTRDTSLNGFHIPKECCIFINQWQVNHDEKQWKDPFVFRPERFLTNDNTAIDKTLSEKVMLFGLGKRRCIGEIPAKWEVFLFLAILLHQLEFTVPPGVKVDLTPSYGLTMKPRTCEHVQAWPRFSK
Procedure: as §1, §2, §3, §4, §5

[4] = in vivo; set-up: species or system Sprague-Dawley (SD) rats; settings: Sprague-Dawley, plasma, rat
Procedure: At each time, 0.5 mL of blood was collected in the heparin sodium tubes. Plasma was separated by centrifugation at 4000 rpm for 10 min and stored below −80 °C until bioanalysis. Oasis PRiME HLB SPE cartridges (1 cc/30 mg, Waters, Milford, MA, USA) were used to process the plasma samples (Supplementary Materials).
The generic layout of instrumentation setup of the LVDI-UHPLC-MS/MS was conducted on a Shimadzu UHPLC system consisting of two LC-20ADXR pumps, a DGU-20A3R degasser, and a CBM-20A controller (Kyoto, Japan) with a SCIEX 4500 QTRAP mass spectrometer mounted with an electron spray ionization (ESI) interface as well as an electronic 6-port/2-channel valve (Foster City, CA, USA). Analyst software package (version 1.6.2, SCIEX) was implemented to control and synchronize the entire system, and also for data acquisition and processing. A single analytical run was fragmented into two phases, namely, loading and elution phases, by switching the electronic valve (Figure 2). At the loading phase, the valve was maintained at A-channel. The specimen aliquot of large volume delivered from the auto-sampler was captured onto a guard column. Meanwhile, the pumps were responsible for delivering the mobile phase at a high flow rate, aiming to dilute the sample solvent, thus facilitating the candidate constituents to concentrate on the pre-guard column. Then, the valve was automatically switched to the B-channel to trigger the elution phase. The trapped components were flushed from the pre-guard column into an analytical column, and underwent multiple reaction monitoring (MRM) analysis on the optimized LC gradients. The detailed information of LVDI-UHPLC-MS/MS analysis for pharmacokinetic and cocktail studies is shown in the Supplementary Materials section.

[5] = system: CYP2C9; assay: In vitro cocktail CYP450 activity assay in rat liver microsomes, CYP2C9 (tolbutamide probe); settings: for IC50: microsomes
Procedure: as §1, §2, §3, §4, §5

[6] = system: CYP2D6; assay: in vitro; settings: microsomes
Procedure: as §1, §2, §3, §4, §5

[7] = system: CYP3A4; assay: in vitro; settings: for IC50: microsomes
Procedure: as §1, §2, §3, §4, §5

[8] = system: CYP2B6; assay: In vitro cocktail CYP450 activity assay in rat liver microsomes, CYP2B6 (bupropion probe); settings: for IC50: microsomes
Procedure: as §1, §2, §3, §4, §5

[9] = target: T1, CYP2E1; settings: IC50 CYP2E1, single components; RLM 0.2 mg/mL, 15 min, triplicate, mean ± SD
Procedure: as §7

[10] = system: CYP450s (isozyme not named); assay: In vitro cocktail CYP450 activity assay, isozyme not given; assay type: in vitro ADME, SD rat; settings: Sprague-Dawley, rat, pH 7.4
Procedure: (§6) (OHBUP-[D6]) and 5 nM 4′-hydroxydiclofenac-[^13C6] (OHDIC-[^13C6]) as internal standards (ISs).

[11] = system: CYP450s; assay: as above; assay type: in vitro ADME, SD rat
Procedure: as §6

[12] = target: T2, CYP1A2; settings: read-out: Reported Km; probe substrate PHE, CYP1A2, literature range ref 9; cited from earlier work
[13] = system: CYP2B6; settings: positive inhibitor of CYP2B6, literature ref 12,13; read-out: Reported IC50; cited from earlier work
[14] = substrate: CCOc1ccc(NC(C)=O)cc1; assay: not read; settings: other: probe substrate, PHE to dEtPHE, CYP1A2, n = 3; pH 7.4; 37.0 °C
[15] = at the Cmax level in rat plasma, calculated from the dose–response curve

T1 sequence (P05182 whole entry): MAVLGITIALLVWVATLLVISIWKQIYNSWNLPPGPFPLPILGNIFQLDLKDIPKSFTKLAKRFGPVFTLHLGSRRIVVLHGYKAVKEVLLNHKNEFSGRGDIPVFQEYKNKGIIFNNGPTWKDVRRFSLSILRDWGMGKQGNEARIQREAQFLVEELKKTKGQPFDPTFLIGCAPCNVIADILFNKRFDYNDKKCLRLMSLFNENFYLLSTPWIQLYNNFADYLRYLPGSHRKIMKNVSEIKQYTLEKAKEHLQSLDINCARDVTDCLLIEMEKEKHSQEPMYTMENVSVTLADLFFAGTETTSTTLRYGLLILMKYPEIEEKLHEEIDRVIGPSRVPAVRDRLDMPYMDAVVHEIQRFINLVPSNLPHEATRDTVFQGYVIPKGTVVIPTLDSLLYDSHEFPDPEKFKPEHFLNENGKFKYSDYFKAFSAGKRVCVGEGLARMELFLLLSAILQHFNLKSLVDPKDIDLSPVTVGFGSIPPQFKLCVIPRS

Molecule: CC(C)=CCC[C@](C)(O[C@@H]1O[C@H](CO)[C@@H](O)[C@H](O)[C@H]1O)[C@H]1CC[C@]2(C)[C@@H]1[C@H](O)C[C@@H]1[C@@]3(C)CC[C@H](O)C(C)(C)[C@@H]3[C@@H](O[C@@H]3O[C@H](CO)[C@@H](O)[C@H](O)[C@H]3O[C@@H]3O[C@@H](C)[C@H](O)[C@@H](O)[C@H]3O)C[C@]12C [GRe, ginsenoside Re]
- Response (% control) CYP2E1 ([1]; Sprague-Dawley, rat, 15 min, pH 7.4): 97.35 % control
- IC50 at 15 min ([2]; Sprague-Dawley, rat, pooled rat liver microsomes, pH 7.4, probe omeprazole (1.07 µM, in seven-probe cocktail), IC50 CYP2C19, single components, RLM 0.2 mg/mL, 15 min, triplicate, mean ± SD): 50.5 ± 15.4 µM
- Response (% control) CYP2C19 [2, 15]: 98.36 % control
- IC50 ([3]; IC50 CYP1A2, single components, RLM 0.2 mg/mL, 15 min, triplicate, mean ± SD): 94.4 ± 4.52 µM
- Response (% control) CYP1A2 [3, 15]: 99.99 % control
- concentration at […] ([4]; 0.083 h after oral CNP): 0.24 ± 0.02 ng/mL
- concentration at 0.25 h ([4]; 0.25 h after oral CNP): 0.25 ± 0.01 ng/mL
- concentration at 0.5 h ([4]; 0.5 h after oral CNP): 0.33 ± 0.11 ng/mL
- concentration at 1 h ([4]; 1 h after oral CNP): 0.24 ± 0.04 ng/mL
- concentration at 1.5 h ([4]; 1.5 h after oral CNP): 0.24 ± 0.03 ng/mL
- concentration at 2 h ([4]; 2 h after oral CNP): 0.23 ± 0.02 ng/mL
- concentration at 3 h ([4]; 3 h after oral CNP): 0.28 ± 0.1 ng/mL
- concentration at 4 h ([4]; 4 h after oral CNP): 0.28 ± 0.07 ng/mL
- concentration at 6 h ([4]; 6 h after oral CNP): 0.23 ± 0.03 ng/mL
- concentration at 8 h ([4]; 8 h after oral CNP): 0.14 ± 0.03 ng/mL
- half-life ([4]; po): 5.99 ± 3.86 h
- AUC(0-inf) ([4]; po, 60 mg/kg): 2.9 ± 0.6 ng·h/mL
- AUC(0-t) ([4]; po, 60 mg/kg): 1.82 ± 0.19 ng·h/mL
- Cmax ([4]; po, 60 mg/kg): 0.29 ± 0.04 ng/mL
- Tmax ([4]; po, 60 mg/kg): 2.6 ± 0.89 h
- half-life ([4]; po, 60 mg/kg): 5.25 ± 2.27 h
- concentration at 0.25 h ([4]; po, 60 mg·kg^−1): 0.26 ± 0.02 ng/mL
- concentration at 0.5 h ([4]; po, 60 mg·kg^−1): 0.24 ± 0.02 ng/mL
- concentration at 1 h ([4]; po, 60 mg·kg^−1): 0.25 ± 0.02 ng/mL
- concentration at 1.5 h ([4]; po, 60 mg·kg^−1): 0.22 ± 0.02 ng/mL
- concentration at 2 h ([4]; po, 60 mg·kg^−1): 0.21 ± 0.01 ng/mL
- concentration at 3 h ([4]; po, 60 mg·kg^−1): 0.27 ± 0.04 ng/mL
- concentration at 4 h ([4]; po, 60 mg·kg^−1): 0.25 ± 0.05 ng/mL
- concentration at 6 h ([4]; po, 60 mg·kg^−1): 0.24 ± 0.06 ng/mL
- concentration at 8 h ([4]; po, 60 mg·kg^−1): 0.13 ± 0.01 ng/mL
- IC50 at 15 min ([5]; Sprague-Dawley, rat, pooled rat liver microsomes, pH 7.4, probe tolbutamide (18 µM, in seven-probe cocktail), IC50 CYP2C9, single components, RLM 0.2 mg/mL, 15 min, triplicate, mean ± SD): > 200 µM
- IC50 at 15 min ([6]; Sprague-Dawley, rat, pH 7.4, IC50 CYP2D6): > 200 µM
- IC50 ([7]; Sprague-Dawley, rat, pH 7.4, IC50 CYP3A4, single components, RLM 0.2 mg/mL, 15 min, triplicate, mean ± SD): 75.1 ± 7.24 µM
- Response (% control) CYP3A4 [7, 15]: 99.99 % control
- IC50 at 15 min ([8]; Sprague-Dawley, rat, pooled rat liver microsomes, pH 7.4, probe bupropion (90 µM, in seven-probe cocktail), IC50 CYP2B6, single components, RLM 0.2 mg/mL, 15 min, triplicate, mean ± SD): 39.4 ± 4.81 µM
- Response (% control) CYP2B6 [8, 15]: 99.64 % control
- IC50 [9]: 25.6 ± 9.03 µM

- IC50 ([2]; Sprague-Dawley, rat, pH 7.4): 46.4 ± 7.05 µM
- IC50 [10]: ≤ 15 µM
- IC50 ([5]; Sprague-Dawley, rat, pH 7.4): 13.5 ± 2.41 µM
- IC50 ([6]; Sprague-Dawley, rat, pH 7.4): 31.1 ± 3.91 µM
- IC50 ([8]; Sprague-Dawley, rat, pH 7.4): 68.5 ± 9.88 µM
- IC50 [9]: 20.3 ± 4.13 µM
Molecule: O=c1c(O)c(-c2ccc(O)c(O)c2)oc2cc(O)cc(O)c12 [A16, quercetin]

- IC50 ([1]; microsomes): 40.8 ± 1.65 µM
- IC50 [2]: 53.67 ± 0.22 µM
- IC50 ([3]; microsomes): 52.8 ± 1.93 µM
- IC50 [11]: ≤ 15 µM
- IC50 [5]: 55.8 ± 3.4 µM
- IC50 [6]: 19.5 ± 2.83 µM
- IC50 [7]: 26.4 ± 1.39 µM
- IC50 [8]: 115 ± 3.04 µM
Molecule: O=c1c(OC2O[C@H](CO)[C@@H](O)[C@H](O)[C@H]2O)c(-c2ccc(O)cc2)oc2cc(O)c(O)c(O)c12 (some centres unmarked) [A6, 6-hydoxykaempferol-3-O-glucoside]

Molecule: CCOc1ccc(NC(C)=O)cc1 [PHE, phenacetin]
- Km [12]: 1.7 to 152 µM

Molecule: S=P(N1CC1)(N1CC1)N1CC1 [TRI, triethylenethiophosphoramide, reference compound]
- IC50 [13]: 1.75 to 26 µM
- IC50 [8]: 0.75 ± 0.0262 µM

B1: CYP1A2 (Rattus norvegicus) (protein)
chain: MAFSQYISLAPELLLATAIFCLVFWVLRGTRTQVPKGLKSPPGPWGLPFIGHMLTLGKNPHLSLTKLSQQYGDVLQIRIGSTPVVVLSGLNTIKQALVKQGDDFKGRPDLYSFTLITNGKSMTFNPDSGPVWAARRRLAQDALKSFSIASDPTSVSSCYLEEHVSKEANHLISKFQKLMAEVGHFEPVNQVVESVANVIGAMCFGKNFPRKSEEMLNLVKSSKDFVENVTSGNAVDFFPVLRYLPNPALKRFKNFNDNFVLFLQKTVQEHYQDFNKNSIQDITGALFKHSENYKDNGGLIPQEKIVNIVNDIFGAGFETVTTAIFWSILLLVTEPKVQRKIHEELDTVIGRDRQPRLSDRPQLPYLEAFILEIYRYTSFVPFTIPHSTTRDTSLNGFHIPKECCIFINQWQVNHDEKQWKDPFVFRPERFLTNDNTAIDKTLSEKVMLFGLGKRRCIGEIPAKWEVFLFLAILLHQLEFTVPPGVKVDLTPSYGLTMKPRTCEHVQAWPRFSK
- Km [14]: 65.26 ± 14.35 µM
